Assay results published in ChEMBL document CHEMBL5465560, “Selectivity Literature for EUbOPEN Chemogenomic Library” (2024).
Where a chain is given by its changes, count along the chain named.

Columns and labels:
[1] = tested on: T1, Receptor-type tyrosine-protein kinase FLT3 (Homo sapiens), P36888 [R834Q]; assay: (§1) Selectivity interaction (KinomeScan (DiscoverX)) EUB0000655a FLT3; conditions: at 10 µM
T1 sequence (whole entry): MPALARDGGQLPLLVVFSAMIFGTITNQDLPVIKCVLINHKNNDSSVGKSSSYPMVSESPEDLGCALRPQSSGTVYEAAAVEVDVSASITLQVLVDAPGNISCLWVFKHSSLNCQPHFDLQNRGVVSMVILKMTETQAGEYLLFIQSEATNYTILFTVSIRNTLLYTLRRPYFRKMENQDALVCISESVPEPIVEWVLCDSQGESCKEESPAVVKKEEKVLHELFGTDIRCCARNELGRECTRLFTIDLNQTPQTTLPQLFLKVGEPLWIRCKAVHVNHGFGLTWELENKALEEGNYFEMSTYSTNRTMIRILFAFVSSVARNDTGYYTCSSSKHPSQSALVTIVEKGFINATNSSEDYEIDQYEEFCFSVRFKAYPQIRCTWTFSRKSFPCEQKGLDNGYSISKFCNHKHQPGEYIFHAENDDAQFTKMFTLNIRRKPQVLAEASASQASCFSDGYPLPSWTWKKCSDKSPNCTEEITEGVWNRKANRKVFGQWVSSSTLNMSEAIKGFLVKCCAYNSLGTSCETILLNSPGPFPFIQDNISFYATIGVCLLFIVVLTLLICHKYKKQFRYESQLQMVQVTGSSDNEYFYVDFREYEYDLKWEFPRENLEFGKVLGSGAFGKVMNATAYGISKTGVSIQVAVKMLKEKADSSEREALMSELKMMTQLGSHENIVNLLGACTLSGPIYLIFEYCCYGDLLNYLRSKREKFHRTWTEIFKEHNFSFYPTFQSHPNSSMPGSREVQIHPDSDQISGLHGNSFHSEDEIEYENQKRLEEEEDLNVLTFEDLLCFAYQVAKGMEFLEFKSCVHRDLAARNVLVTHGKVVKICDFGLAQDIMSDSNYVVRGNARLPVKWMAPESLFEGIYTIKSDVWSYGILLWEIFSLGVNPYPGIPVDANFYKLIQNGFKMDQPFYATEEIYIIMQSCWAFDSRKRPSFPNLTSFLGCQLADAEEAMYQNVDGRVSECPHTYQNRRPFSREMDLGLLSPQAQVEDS

[2] = tested on: T2, Receptor-type tyrosine-protein kinase FLT3 (Homo sapiens), P36888 [D835H]; assay: as §1; conditions: at 10 µM
T2 sequence (whole entry): T1 sequence (whole entry) with Q834R, D835H

Question: Which results are given for `CN(C)CCOc1ccc(-c2nc(-c3ccncc3)c(-c3ccc4c(c3)CC/C4=N\O)[nH]2)cc1`?
Answer: % of control [1]: 100%; % of control [2]: 85%
